{
  "source": "patent US7906486B2",
  "about": "“Method of treating or preventing tissue deterioration, injury or damage due to disease of mucosa” (SciClone Pharmaceuticals, Inc., priority 2007, dated 2011)",
  "key": {"[1]": {"tested_on": "immunization with sheep red blood cells", "conditions": "in vivo; cited from earlier work"}, "[2]": {"tested_on": "oral mucositis induced by cis-platin 5 mg/kg and radiation 35 Gy (left cheek pouch)", "experiment": "Oral mucositis induced by a combination of cisplatin and acute radiation in hamsters, mucositis scoring (Example 4, SCI-04)", "assay_type": "in vivo, Syrian Golden Hamsters", "set-up": "key: 0: Pouch completely healthy. No erythema or vasodilation.; 1: Light to severe erythema and vasodilation. No erosion of mucosa.; 2: Severe erythema and vasodilation. Erosion of superficial aspects of mucosa leaving denuded areas, but no frank ulceration. Decreased stippling of mucosa.; 3: Formation of off-white ulcers in one or more places. Ulcers may have a yellow/gray due to pseudomembrane. Cumulative size of ulcers should equal about ¼ of the pouch. Severe erythema and vasodilation.; 4: Cumulative seize of ulcers should equal about ½ of the pouch. Loss of pliability. Severe erythema and vasodilation.; 5: Virtually all of pouch is ulcerated. Loss of pliability (pouch can only partially be extracted from mouth)", "conditions": "Group 2 (SCV-07 10 μg/kg, day -1 to day 20), individual animal scores, two scores per animal", "description": "Forty Golden Syrian hamsters were prospectively randomized into four equally sized groups. Mucositis was induced on the left cheek pouch mucosa of golden Syrian hamsters by a single dose of cis-platin at 5 mg/kg given on day −1, and a single dose of radiation administered on day 0 at a dose of 35Gy. Beginning on day −1 and continuing once daily until day 20, SCV-07 was given by sub-cutaneous injection at doses of 10 μg/kg, 100 μg/kg or 1 mg/kg in a volume of 100 μL. Animals' activity and weight were evaluated daily. Beginning on day 6 and continuing on alternate days for the duration of the study, oral mucositis was evaluated using a standard scoring six point scale. The number of days of ulcerative mucositis was evaluated using a Chi-squared test of scores of ≧3 throughout the study, and the individual daily group scores were assessed with a Rank Sum Test.\nThe chemo-radiation model of oral mucositis in hamsters, developed by the Principal Investigator, has proven to be an accurate, efficient and cost-effective technique to provide a preliminary evaluation of anti-mucositis compounds. In this model, hamsters received a single dose of cis-platin at 5 mg/kg on day −1, followed by a single dose of radiation of 35 Gy to the left cheek pouch on day 0, rather than the single dose of 40 Gy on day 0 that is used in acute radiation studies. The course of mucositis in this model is very similar to the acute radiation model and results in peak mucositis scores approximately 16-18 days following radiation.\nHamsters received a single dose of cis-platin at 5 mg/kg on day −1 by intra-peritoneal injection, followed by a single dose of radiation of 35 Gy to the left cheek pouch on day 0. This was accomplished by anesthetizing the animals and everting the left buccal pouch, while protecting the rest of the animal's bodies with a lead shield. Test materials were given by sub-cutaneous injection once daily as detailed in Table 13. Mucositis was evaluated clinically starting on day 6, and continuing on alternate days until day 28. Test articles were given as from day −1 to day 20.\nThe grade of mucositis was scored, beginning day 6, and for every second day thereafter, through and including day 28. The effect on mucositis of each drug treatment compared to placebo was assessed according to the following parameters:\nOn each evaluation day, the number of animals with a blinded mucositis score of ≧3 in each drug treatment group was compared to the control group. Differences were compared on a cumulative basis and statistical significance was determined by chi-square analysis. Efficacy, in this analysis, is defined by a significant reduction in the number of days that a group of animals had ulcerations (scores 3) when compared to the control group.\nFor each evaluation day the scores of the control group were compared to those of the treated groups using non-parametric rank sum analysis. Treatment success was considered as a statistically significant lowering of scores in the treated group on 2 or more days from day 6 to day 28.\nForty (40) male Syrian Golden Hamsters were given an intraperitoneal injection of 5 mg/kg Cisplatin on day −1. On day 0 all animals were given an acute radiation dose of 35 Gy directed to their left buccal cheek pouch. This was accomplished by anesthetizing the animals and everting the left buccal pouch, while protecting the rest of the animals with a lead shield. Test materials were given by subcutaneous injection once daily as detailed in Table 13. Mucositis was evaluated clinically starting on Day 6, and continued on alternate days until day 28.\nIn this study, mucositis was induced with a combination of Cis-platin and radiation. Cis-platin was given as a single injection (IP) of 5 mg/kg on day −1. Radiation was given as a single focal dose of 35 Gy on day 0. Radiation was generated with a Philips 160 kVp (kilovolt potential) (18.75-ma) X-ray source at a focal distance of 30 cm, with a 3.0 mm hardened Al filtration system. […]"}, "bone marrow cells": {"tested_on": "bone marrow cells", "conditions": "cited from earlier work"}},
  "data": [
    {"smiles": "N[C@H](CCC(=O)N[C@@H](Cc1c[nH]c2ccccc12)C(=O)O)C(=O)O", "note": "[SCV-07, γ-D-glutamyl-L-tryptophan]", "values": [
      {"measurement": "immunostimulatory effect in a model of immunization with sheep red blood cells", "setting": "[1]", "result": "strong immunostimulatory effect"},
      {"measurement": "Mucositis score, day 10", "setting": "[2]; day 10", "result": 2},
      {"measurement": "Mucositis score, day 12", "setting": "[2]; day 12", "result": 2},
      {"measurement": "Mucositis score, day 14", "setting": "[2]; day 14", "result": 2},
      {"measurement": "Mucositis score, day 16", "setting": "[2]; day 16", "result": 2},
      {"measurement": "Mucositis score, day 18", "setting": "[2]; day 18", "result": 2},
      {"measurement": "Mucositis score, day 20", "setting": "[2]; day 20", "result": 2},
      {"measurement": "Mucositis score, day 22", "setting": "[2]; day 22", "result": 2},
      {"measurement": "Mucositis score, day 24", "setting": "[2]; day 24", "result": 2},
      {"measurement": "Mucositis score, day 26", "setting": "[2]; day 26", "result": 2},
      {"measurement": "Mucositis score, day 28", "setting": "[2]; day 28", "result": 2},
      {"measurement": "expression of Thy-1.2 on bone marrow cells", "setting": "bone marrow cells", "result": "stimulates"}
    ]}
  ]
}
